Results from patent US5877165A, “Boronated porhyrins and methods for their use” (priority 1997, dated 1999).

Experiments:
EMT-6 mammary tumors = assay: Experiment II: boron concentrations in tissues, mice bearing EMT-6 tumors (Table 9); type: in vivo, BALB/c mice; conditions: 90 hrs after last ip injection; NiDPE 78 (6 ip), VCDP 245 μg/gbw (12 ip)
Method: Lipophilic porphyrins 1, 2, 4, 5, and 6 were injected as emulsions in either 3% or 9% CRM and either 6% or 18% PRG with saline as previously described in Example 2 above. Water soluble porphyrins 3 and 7 were dissolved in saline. BPA was solubilized as a fructose complex.
Female BALB/c mice (from Taconic Farms, Germantown, N.Y.) (20-25 g) were implanted with either KHJJ or EMT-6 tumors according to the procedure described in Example 3A above.
Under deep halothane anesthesia leading to euthanasia, right ventricular blood was collected in Microtainer (Becton-Dickinson, Rutherford, N.J.) tubes containing EDTA for hematological analyses and boron assays of whole blood and in Microtainer™ tubes containing lithium heparin for chemical analyses and enzyme assays of blood plasma. Tumor, brain, fat, muscle, and liver tissues were sampled at necropsy for boron analyses.
Hematological, chemical and enzymatic tests were carried out as described in Example 3 above. Nonparametric statistical analyses were carried out using the Wilcoxon Two-Sample Test in accordance with procedures described in Slatkin, D.N., 1995. Boron analyses were conducted in accordance with the procedure described in Example 3 above. Fat and liver tissues were assayed for ^10 B by prompt-gamma spectroscopy as described in Fairchild, et al., 1986. These measurements were multiplied by 5.0 to give total boron concentrations due to the use of boron of natural isotope abundance in the syntheses of all boronated porphyrins reported.

[1] = Overall ranking of boronated porphyrins for BNCT guided by biodistribution and toxicity tests in mice (Table 11); conditions: rank; higher numerical value = better performance
Method: The higher the numerical value, the better the performance of that porphyrin for that property. […] Although VCDP was able to deliver therapeutic amounts of boron to tumor, such side effects such as thrombocytopenia, which was induced within 3 hours after injections, weight loss, and the altered hepatic enzymes were serious enough to rank VCDP considerably behind the TCP's and the TCP-H's (Miura et al., 1992). In addition, the 80-hour drug administration period and the 90-hour blood clearance period are of great inconvenience. Moreover, this 4-day difference between the VCDP and the TCP (or TCP-H) dose and clearance schedules would translate into a 4-day greater delay between initiation of drug administration and neutron irradiation which would allow greater tumor growth to occur.
[…]
biodistribution and toxicity tests in mice. An asterisk indicates

EMT-6 tumors = assay: Boron concentrations arithmetically normalized to constant dose, mice bearing EMT-6 tumors (FIG. 3); type: in vivo, BALB/c mice; conditions: normalized porphyrin dose (160 μg porphyrin/gbw)
Method: Since the porphyrins were not given at the same dose, the boron concentrations in tumor, blood, and brain were arithmetically normalized to a total dose of 160 μg porphyrin/gbw for comparison in FIG. 3. Since each porphyrin has a different percentage of boron per unit mass, tumor boron concentrations were also arithmetically normalized to a total dose of 36.5 μg B/gbw, also shown in FIG. 3.

[2] = cited from earlier work

With “3,8-divinyl-nido-carboranyldeuteroporphyrin [VCDP]” the “Boron concentration, Blood” value (EMT-6 mammary tumors) was 7 (4.3-13) μB/g, the “Boron concentration, Brain” value (EMT-6 mammary tumors) was 8.1 (4.9-16.2) μB/g and the “Boron concentration, Tumor” value (EMT-6 mammary tumors) was 53 (30-106) μB/g. The “Drug tolerance/deliverable boron (ranking)” value [1] was 2, the “Lipophilicity (ranking)” value [1] was 0 and the “Tumor uptake (normalized) (ranking)” value [1] was 3. For the same substance, the “Tumor:Blood (ranking)” value [1] was 2, the “tumor boron uptake, normalized” value (EMT-6 tumors) was 38 and the “toxicity vs control, in words” value ([2]; 130 μg VCDP/gbw over 32 hr, 90 hrs after last injection (Miura et al., 1992)) was “no differences from control groups given a bicarbonate solution, although CPK was slightly depressed”. The “time to thrombocytopenia after injections” value ([2]; Miura et al., 1992) was no more than 3 h and the “dose per injection that keeps mortality below 10%” value ([2]; per injection, mice) was 22 μg VCDP/gbw.
